Values of other authors, collected in patent publication US6692771B2, “Emulsions as solid dosage forms for oral administration” (CIMA Labs Inc., priority 2001, dated 2004).

Conditions: orally administered dose; average value given in parentheses

Row | Molecule | average bioavailability
1 | Oc1ccc2c3c1O[C@H]1[C@@H](O)CC[C@@]4(O)[C@@H](C2)N(CC2CCC2)CC[C@]314 [nalbuphine] | approximately 17%
2 | methyldopa | 25%
